Measurements from US20240279302A1, “OLFACTORY RECEPTOR EXPRESSING METHOD AND RESPONSE MEASUREMENT METHOD” (Kao Corporation, priority 2021, published 2024).
Like-named read-outs stand apart in the source and are kept apart here.

Legend:
Experiment in all cases: Luciferase assay, sulfur compounds
Assay type in all cases: cell-based
[1] = biological target: T1, OR4S2 (original olfactory receptor) (Homo sapiens, UniProt Q8NH73); details: for dose dependence of the response of OR4S2 / response of OR4S2: in the presence of a copper ion
T1 construct: expressed in transfected cells; host or cells: HEK293
T1 sequence (Q8NH73 1-311): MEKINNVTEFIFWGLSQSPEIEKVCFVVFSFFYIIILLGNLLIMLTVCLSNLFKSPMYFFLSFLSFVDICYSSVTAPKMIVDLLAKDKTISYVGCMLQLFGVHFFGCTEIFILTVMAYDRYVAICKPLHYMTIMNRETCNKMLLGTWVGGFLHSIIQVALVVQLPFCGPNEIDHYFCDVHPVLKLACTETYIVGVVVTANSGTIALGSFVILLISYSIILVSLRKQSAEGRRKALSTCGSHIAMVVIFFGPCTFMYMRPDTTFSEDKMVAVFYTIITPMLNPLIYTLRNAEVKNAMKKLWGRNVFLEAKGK
Protocol: (§1) A reaction solution as to each consensus olfactory receptor prepared in Examples described above was prepared according to the composition shown in Table 4, left standing for 20 minutes in a clean bench, and then added to each well of a 96-well plate (Becton, Dickinson and Company). The original olfactory receptor was used as to OR4S2. Composition shown in Table 20 was used as to OR11H2 and OR4E2. Subsequently, 100 μL of HEK293 cells suspended in DMEM (Nacalai Tesque, Inc.) was inoculated at 2×10^5 cells/cm^2 to each well, and cultured for 24 hours in an incubator kept at 37° C. and 5% CO2. Cells expressing no olfactory receptor (Mock) were provided as a control.
(§2) The medium was removed from the cultures prepared in 1), and 75 μL of a test substance solution (methyl mercaptan (MeSH) (CAS: 74-93-1, Tokyo Chemical Industry Co., Ltd.), dimethyl sulfide (DMS) (CAS: 75-18-3, FUJIFILM Wako Pure Chemical Corp.), dimethyl disulfide (DMDS) (CAS: 624-92-0, Tokyo Chemical Industry Co., Ltd.), concentration range: 0 μM, 1 μM, 3 μM, 10 μM, 30 μM, 100 μM, and 300 μM, or dimethyl trisulfide (DMTS) (CAS: 3658-80-8, Tokyo Chemical Industry Co., Ltd.), concentration range: 0 μM, 0.1 μM, 0.3 μM, 1 μM, 3 μM, 10 μM, and 30 μM) prepared with a fresh medium was added thereto. Under a copper ion addition condition, the test substance solution was adjusted to contain 30 μM copper(II) chloride (FUJIFILM Wako Pure Chemical Corp.) in addition to the odorant. The cells were cultured for 4 hours in a CO2 incubator and the luciferase gene was expressed sufficiently in the cells. Luciferase activity was measured using Dual-Glo™ luciferase assay system (Promega Corp.) in accordance with the operation manual of the product. A luminescence value derived from firefly luciferase induced by test substance stimulation in each well of the 96-well plate was divided by a luminescence value derived from Renilla luciferase to calculate a value (fluc/hRluc) as a signal, which was then used in analysis. The signal under each transfection condition was normalized with the signal value (fluc/hRluc) under an odorant stimulation-free condition defined as 0% and the signal value (fluc/hRluc) by stimulation with 10 μM forskolin defined as 100%, and used as a response (%) in analysis.

consensus OR4E2 = biological target: T2, consensus OR4E2 (Homo sapiens, UniProt Q8NGC2, A48T/F285L/G158V/H228Q/I116T/I142V/I197M/I47V/L183P/M219T/M25I/M36V/Q234R/R21W/S209T/S40L/S54R/T201S/T49I/T99A/V118M/V214L); details: for dose dependence of the response of consensus OR4E2 / response of consensus OR4E2: in the presence of a copper ion
T2 construct: Flag (N); Rho tag (N); expressed in transfected cells; host or cells: HEK293
T2 sequence (Q8NGC2 1-312 R21W/M25I/M36V/S40L/I47V/A48T/T49I/S54R/T99A/I116T/V118M/I142V/G158V/L183P/I197M/T201S/S209T/V214L/M219T/H228Q/Q234R/F285L limits assumed): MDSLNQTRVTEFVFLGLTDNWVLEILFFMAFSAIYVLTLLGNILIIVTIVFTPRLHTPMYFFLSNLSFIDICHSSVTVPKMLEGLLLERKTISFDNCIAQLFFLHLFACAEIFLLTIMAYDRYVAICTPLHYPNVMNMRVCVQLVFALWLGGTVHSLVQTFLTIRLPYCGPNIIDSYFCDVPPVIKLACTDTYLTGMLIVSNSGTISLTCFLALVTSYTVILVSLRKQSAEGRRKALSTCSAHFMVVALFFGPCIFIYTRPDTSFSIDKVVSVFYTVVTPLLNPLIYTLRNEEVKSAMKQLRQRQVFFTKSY
Protocol: as §1, §2

consensus OR6B3 = biological target: T3, consensus OR6B3 (Homo sapiens, UniProt Q8NGW1, A219G/C161Y/C234R/F239S/F305L/G10S/I281L/L135I/L142V/M157V/M215V/P138T/Q89R/R8K/S64G/T78I/V136M/V15L/V166A/V250I)
T3 construct: expressed in transfected cells; host or cells: HEK293
T3 sequence (Q8NGW1 with tags, fused parts or gaps R8K/G10S/V15L/S64G/T78I/Q89R/L135I/V136M/P138T/L142V/M157V/C161Y/V166A/M215V/A219G/C234R/F239S/V250I/I281L/F305L): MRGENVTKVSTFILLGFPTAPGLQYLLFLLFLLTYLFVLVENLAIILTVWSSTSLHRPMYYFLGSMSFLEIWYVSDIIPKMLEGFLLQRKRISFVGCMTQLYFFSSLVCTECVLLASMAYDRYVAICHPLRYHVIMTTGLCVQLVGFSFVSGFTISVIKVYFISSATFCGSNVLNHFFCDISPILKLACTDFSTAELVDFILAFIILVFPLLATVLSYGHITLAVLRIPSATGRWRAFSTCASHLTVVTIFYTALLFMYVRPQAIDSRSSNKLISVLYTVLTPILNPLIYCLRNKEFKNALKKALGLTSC
Protocol: as §1, §2

consensus OR2T29 = biological target: T4, consensus OR2T29 (Homo sapiens, UniProt Q8NH02, A149V/A76M/C55S/F147L/I190K/I217V/K41M/L14S/L223S/L224F/L249M/L87M/M19V/M302T/M75V/R23S/R6W/S169T/S32C/S61T/T121A/T189M/V229I/V48I/V96I/W176R)
T4 construct: expressed in transfected cells; host or cells: HEK293
T4 sequence (Q8NH02 with tags, fused parts or gaps R6W/L14S/M19V/R23S/S32C/K41M/V48I/C55S/S61T/M75V/A76M/L87M/V96I/T121A/F147L/A149V/S169T/W176R/T189M/I190K/I217V/L223S/L224F/V229I/L249M/M302T): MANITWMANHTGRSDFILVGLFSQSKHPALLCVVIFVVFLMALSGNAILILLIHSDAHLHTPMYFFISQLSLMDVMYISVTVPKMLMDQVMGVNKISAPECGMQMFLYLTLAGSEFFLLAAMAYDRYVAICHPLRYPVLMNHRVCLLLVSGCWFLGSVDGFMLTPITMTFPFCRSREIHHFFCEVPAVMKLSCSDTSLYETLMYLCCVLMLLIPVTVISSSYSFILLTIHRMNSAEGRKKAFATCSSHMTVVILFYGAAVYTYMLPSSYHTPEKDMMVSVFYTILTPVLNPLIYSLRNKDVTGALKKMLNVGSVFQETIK
Protocol: as §1, §2

[2] = in the presence of a copper ion

SMILES	EC50 [1]	dose dependence of the response of OR4S2 [1]	response of OR4S2 [1]	EC50 (consensus OR4E2)	dose dependence of the response of consensus OR4E2 (consensus OR4E2)	response of consensus OR4E2 (consensus OR4E2)	EC50 (consensus OR6B3)	dose dependence of the response of consensus OR6B3 (consensus OR6B3; [2])	response of consensus OR6B3 (consensus OR6B3; [2])	response of consensus OR2T29 (consensus OR2T29; [2])	EC50 ([1]; OR4S2 (original), 30 μM CuCl2, read-out: EC50(μM) with 30 μM CuCl2)	EC50 (consensus OR4E2; consensus OR4E2, 30 μM CuCl2, read-out: EC50(μM) with 30 μM CuCl2)	EC50 (consensus OR2T29)	dose dependence of the response of consensus OR2T29 (consensus OR2T29; [2])
CSSC [dimethyl disulfide]	530 µM	dose-dependent response	responded	397 µM	dose-dependent response	responded	1600 µM	dose-dependent response	responded	responded				
CSSSC [dimethyl trisulfide]		dose-dependent response	responded		dose-dependent response	responded			responded	responded	28 µM	33 µM		
CS [methyl mercaptan]			responded	250 µM	dose-dependent response	responded			responded	responded			85 µM	dose-dependent response
